Data on 7 compounds can be found in ChEMBL document CHEMBL1148892, “Evaluation of in vitro aldose redutase inhibitory activity of 5-arylidene-2,4-thiazolidinediones” (Bioorg Med Chem Lett, 2007).

Each structure is given as a SMILES string.

In one experiment the target is Aldo-keto reductase family 1 member B1 (Bos taurus) (UniProt P16116). Description: Inhibition of bovine aldose reductase at 12.5 uM.
A word on the inhibition: it is the drop in the measured response relative to a control, in per cent. Lower therefore signals a response near the control. `COc1ccc(/C=C2\SC(=O)NC2=O)cc1O`: the inhibition came to 33%.

A further experiment concerns the target Aldo-keto reductase family 1 member B1 (Bos taurus, UniProt P16116). Briefly: Inhibition of bovine aldose reductase.
As a reminder, the IC50 is the concentration that inhibits the measured activity by half. Lower therefore signals greater potency in that assay. The compound `O=C(O)COc1cccc(/C=C2\SC(=O)N(CC(=O)O)C2=O)c1` yielded a half-inhibitory concentration (IC50) of 230 nM.
The compound `COc1cc(/C=C2\SC(=O)N(CC(=O)O)C2=O)ccc1O` displayed an IC50 of 700 nM. This IC50 is about 3-fold higher than that of the compound before.
`O=C(O)COc1ccc(/C=C2\SC(=O)N(CC(=O)O)C2=O)cc1` returned an IC50 of 600 nM.
On the same count and under the same terms, the same measure for `COc1ccc(/C=C2\SC(=O)N(CC(=O)O)C2=O)cc1O`: 560 nM; for `COc1cc(/C=C2\SC(=O)N(CC(=O)O)C2=O)ccc1OCC(=O)O`: 260 nM.
Same read-out and setting: the same measure for `COc1cc(/C=C2\SC(=O)NC2=O)ccc1O`: 11800 nM.
